Assay results taken from US8158615B2, “Anti-viral composition for the topical treatment of Herpes Labialis (cold sores) and method for use thereof” (priority 2006, dated 2012).

Experiments:
Herpes Labialis = settings: 1% concentration; application after the prodromal phase; cited from earlier work
HSV-1 = assay: Anti-viral activity of CTC-96 extracted from Dermal Ointment Formulation; type: cell-based; settings: extract diluted to 2.5 μg/ml
Excerpt: FIG. 1 is a graphical representation showing the anti-viral activity of CTC-96 extracted from the dermal formulation.
CTC-96 was mixed to homogeneity with a Dermal Ointment Formulation (petrolatum 10% by weight, camphor 0.92% by weight, menthol 0.5% by weight, methyl salicylate 0.26% by weight, eucalyptus oil 0.30% by weight).

[1] = Percutaneous absorption of CTC-96 from Dermal ointment Formulation, finite dose technique, Franz Diffusion Cells; type: in vitro ADME, human; settings: 48 hours; for Mass in Dermis / Mass in Receptor Solution / Percent of Applied Dose in Dermis / Percent of Applied Dose in Epidermis / Percent of Applied Dose in Receptor Solution: single application; for Percent of Applied Dose in Epidermis / Percent of Applied Dose in Receptor Solution / Mass in Epidermis / Mass in Surface wash / Mass, Total Recovery / Percent of Applied Dose in Surfacewash / Percent of Applied Dose, Total Recovery / Mass in Stratum Corneum / Percent of Applied Dose in Stratum Corneum: Mean ± SE; for Percent of Applied Dose in Receptor Solution: n = 3 donors; for Mass in Stratum Corneum / Percent of Applied Dose in Stratum Corneum: tape strip samples
Method: The percutaneous absorption of Doxovir-L® (CTC-96) was evaluated by mixing CTC-96 at two concentrations (10 mg/g and 1 mg/g) to homogeneity with a Dermal ointment Formulation (petrolatum 10% by weight, camphor 0.92% by weight, menthol 0.5% by weight, methyl salicylate 0.26% by weight, eucalyptus oil 0.30% by weight) and was determined in vitro, using the human cadaver skin model using the finite dose technique and Franz Diffusion Cells (12;13). Placebo consisted of the drug formulation without drug. The amount of Dermal ointment that is applied at each treatment was determined is shown in the following table (TABLE 1): The percutaneous absorption of Doxovir-L® (CTC-96) was determined is shown in the following table (TABLE 2 & TABLE 3): […]

SMILES: Nc1nc2c(ncn2CCC(CO)CO)c(=O)[nH]1 [penciclovir]
- reduction in symptoms and time to healing (Herpes Labialis): 20-30%

SMILES: CC(/C=C(/C)[O-])=NCCN=C(C)/C=C(/C)[O-].Cc1ncc[nH]1.Cc1ncc[nH]1.[Br-].[Co+3] [CTC-96]
- % Inhibition Mean ± SD (HSV-1; incubated at 4° C., 3 mo): 91.5 ± 0.5%
- % Inhibition Mean ± SD (HSV-1; incubated at 4° C., 6 mo): 91.5 ± 3.4%
- % Inhibition Mean ± SD (HSV-1; incubated at 4° C., time 0): 91.8 ± 1.7%
- % Inhibition Mean ± SD (HSV-1; incubated at 40° C., 3 mo): 90.1 ± 0.8%
- % Inhibition Mean ± SD (HSV-1; incubated at 40° C., 6 mo): 92.1 ± 1.0%
- % Inhibition Mean ± SD (HSV-1; incubated at 40° C., time 0): 88.8 ± 2.7%
- Mass in Dermis ([1]; drug concentration 1 mg/g): 0 μg/cm2
- Mass in Receptor Solution ([1]; drug concentration 1 mg/g): 0 μg/cm2
- Percent of Applied Dose in Dermis ([1]; drug concentration 1 mg/g): 0% of Applied Dose
- Percent of Applied Dose in Epidermis ([1]; drug concentration 1 mg/g): 2.20 ± 1.09% of Applied Dose
- Percent of Applied Dose in Receptor Solution ([1]; drug concentration 1 mg/g): 0% of Applied Dose
- Mass in Epidermis ([1]; drug concentration 1 mg/g): 0.11 ± 0.05 μg/cm2
- Mass in Surface wash ([1]; drug concentration 1 mg/g): 3.17 ± 0.01 μg/cm2
- Mass, Total Recovery ([1]; drug concentration 1 mg/g): 4.83 ± 0.07 μg/cm2
- Percent of Applied Dose in Surfacewash ([1]; drug concentration 1 mg/g): 7.41 ± 0.30% of Applied Dose
- Percent of Applied Dose, Total Recovery ([1]; drug concentration 1 mg/g): 9.67 ± 1.34% of Applied Dose
- Mass in Stratum Corneum ([1]; drug concentration 1 mg/g): 0.03 ± 0.00 μg/cm2
- Percent of Applied Dose in Stratum Corneum ([1]; drug concentration 1 mg/g): 0.06 ± 0.06% of Applied Dose
- Mass in Dermis ([1]; drug concentration 10 mg/g): 0 μg/cm2
- Mass in Receptor Solution ([1]; drug concentration 10 mg/g): 0 μg/cm2
- Percent of Applied Dose in Dermis ([1]; drug concentration 10 mg/g): 0% of Applied Dose
- Percent of Applied Dose in Epidermis ([1]; drug concentration 10 mg/g): 3.63 ± 0.58% of Applied Dose
- Percent of Applied Dose in Receptor Solution ([1]; drug concentration 10 mg/g): 0% of Applied Dose
- Mass in Epidermis ([1]; drug concentration 10 mg/g): 1.81 ± 0.29 μg/cm2
- Mass in Surface wash ([1]; drug concentration 10 mg/g): 5.41 ± 1.90 μg/cm2
- Mass, Total Recovery ([1]; drug concentration 10 mg/g): 7.86 ± 1.56 μg/cm2
- Percent of Applied Dose in Surfacewash ([1]; drug concentration 10 mg/g): 10.81 ± 3.79% of Applied Dose
- Percent of Applied Dose, Total Recovery ([1]; drug concentration 10 mg/g): 15.72 ± 3.12% of Applied Dose
- Mass in Stratum Corneum ([1]; drug concentration 10 mg/g): 0.64 ± 0.33 μg/cm2
- Percent of Applied Dose in Stratum Corneum ([1]; drug concentration 10 mg/g): 1.29 ± 0.67% of Applied Dose
